In brackets after ≈: the same amount, converted by molar mass.
Tests used:
Type in all cases: cell-based
[1] = system: Escherichia coli SOL 90; experiment: MIC, in vitro dilution method, Escherichia coli SOL 90 (Table III); details: SOL90; Escherichia coli SOL 90; dilution method; read-out: MIC
Description: (§1) The products of the invention have been studied as regards their pharmacological properties and, more especially, bacteriostatic action. This has been determined in vitro by the dilution method, and the study was on Gram negative strains.
(§2) Results, expressed in minimum inhibiting concentrations (MIC-- μg/ml), are collected in the following table (Table III).

[2] = system: Citrobacter RL 49; experiment: MIC, in vitro dilution method, Citrobacter RL 49 (Table III); details: RL49; Citrobacter RL 49; dilution method; read-out: MIC
Description: as §1, §2

[3] = system: Proteus vulgaris RL 99 bis; experiment: MIC, in vitro dilution method, Proteus vulgaris RL 99 bis (Table III); details: RL99BIS; Proteus vulgaris RL 99 bis; dilution method; read-out: MIC
Description: as §1, §2

[4] = system: Serratia RL 72; experiment: MIC, in vitro dilution method, Serratia RL 72 (Table III); details: RL72
Description: as §1, §2

[5] = system: Klebsiella RO 30; experiment: MIC, in vitro dilution method, Klebsiella RO 30 (Table III); details: RO30; Klebsiella RO 30; dilution method; read-out: MIC
Description: as §1, §2

[6] = system: Enterobacter RO 154; experiment: MIC, in vitro dilution method, Enterobacter RO 154 (Table III); details: RO154; Enterobacter RO 154; dilution method; read-out: MIC
Description: as §1, §2

[7] = system: Pseudomonas RL 112; experiment: MIC, in vitro dilution method, Pseudomonas RL 112 (Table III); details: RL112
Description: as §1, §2

| SMILES | MIC [1] | MIC [2] | MIC [3] | MIC [4] | MIC [5] | MIC [6] | MIC [7] |
| --- | --- | --- | --- | --- | --- | --- | --- |
| CC(C)C[C@H](N)C(=O)OCC1=C(C(=O)O)N2C(=O)C(NC(=O)/C(=N\OC(C)(C)C(=O)O)c3csc(N)n3)C2[S+]([O-])C1 (stereo partly shown) [41 859] | 1 mg/L (≈ 1.63 µM) | 2 mg/L (≈ 3.25 µM) | 0.25 mg/L (≈ 0.407 µM) | 4 mg/L (≈ 6.51 µM) | 0.5 mg/L (≈ 0.813 µM) | 8 mg/L (≈ 13 µM) | 16 mg/L (≈ 26 µM) |
| CC(C)(O/N=C(\C(=O)NC1C(=O)N2C(C(=O)O)=C(COC(=O)c3cccc(NC(=O)CCN)c3)C[S+]([O-])C12)c1csc(N)n1)C(=O)O (stereo not shown) [42 465] | ≤ 0.125 mg/L | ≤ 0.125 mg/L | ≤ 0.125 mg/L | 2 mg/L (≈ 2.89 µM) | 0.5 mg/L (≈ 0.723 µM) | 0.5 mg/L (≈ 0.723 µM) | 8 mg/L (≈ 11.6 µM) |
| CC(C)(O/N=C(\C(=O)NC1C(=O)N2C(C(=O)O)=C(COC(=O)[C@@H](N)Cc3c[nH]cn3)C[S+]([O-])C12)c1csc(N)n1)C(=O)O (stereo partly shown) [41 889] | 1 mg/L (≈ 1.57 µM) | 1 mg/L (≈ 1.57 µM) | 0.5 mg/L (≈ 0.783 µM) | 4 mg/L (≈ 6.26 µM) | 1 mg/L (≈ 1.57 µM) | 8 mg/L (≈ 12.5 µM) | 8 mg/L (≈ 12.5 µM) |
| CC(CN)C(=O)OCC1=C(C(=O)O)N2C(=O)C(NC(=O)C(=NOC(C)(C)C(=O)O)c3csc(N)n3)C2[S+]([O-])C1 (stereo not shown) [42 025] | 0.5 mg/L (≈ 0.852 µM) | 0.5 mg/L (≈ 0.852 µM) | 0.25 mg/L (≈ 0.426 µM) | 1 mg/L (≈ 1.7 µM) | 0.5 mg/L (≈ 0.852 µM) | 4 mg/L (≈ 6.82 µM) | 4 mg/L (≈ 6.82 µM) |
| CC(C)[C@H](N)C(=O)OCC1=C(C(=O)O)N2C(=O)C(NC(=O)/C(=N\OC(C)(C)C(=O)O)c3csc(N)n3)C2[S+]([O-])C1 (stereo partly shown) [41 806] | 1 mg/L (≈ 1.66 µM) | 1 mg/L (≈ 1.66 µM) | 0.5 mg/L (≈ 0.832 µM) | 4 mg/L (≈ 6.66 µM) | 0.5 mg/L (≈ 0.832 µM) | 8 mg/L (≈ 13.3 µM) | 8 mg/L (≈ 13.3 µM) |
| Nc1nc(/C(=N/OC2(C(=O)O)CCC2)C(=O)NC2C(=O)N3C(C(=O)O)=C(COC(=O)C4(N)CCCC4)C[S+]([O-])C23)cs1 (stereo not shown) [42 210] | 1 mg/L (≈ 1.6 µM) | 0.5 mg/L (≈ 0.8 µM) | 0.25 mg/L (≈ 0.4 µM) | 1 mg/L (≈ 1.6 µM) | 0.5 mg/L (≈ 0.8 µM) | 0.25 mg/L (≈ 0.4 µM) | 4 mg/L (≈ 6.4 µM) |
| CNCc1cccc(C(=O)OCC2=C(C(=O)O)N3C(=O)C(NC(=O)/C(=N\OC(C)(C)C(=O)O)c4csc(N)n4)C3[S+]([O-])C2)c1 (stereo not shown) [42 537] | 0.25 mg/L (≈ 0.385 µM) | 0.25 mg/L (≈ 0.385 µM) | ≤ 0.125 mg/L | 0.5 mg/L (≈ 0.771 µM) | 0.25 mg/L (≈ 0.385 µM) | 0.25 mg/L (≈ 0.385 µM) | 8 mg/L (≈ 12.3 µM) |
| NCc1cccc(C(=O)OCC2=C(C(=O)O)N3C(=O)C(NC(=O)/C(=N\OC4(C(=O)O)CCC4)c4csc(N)n4)C3[S+]([O-])C2)c1 (stereo not shown) [42 462] | 0.25 mg/L (≈ 0.387 µM) | ≤ 0.125 mg/L | ≤ 0.125 mg/L | 0.5 mg/L (≈ 0.773 µM) | ≤ 0.125 mg/L | ≤ 0.125 mg/L | 4 mg/L (≈ 6.19 µM) |
| Cc1cc(C(=O)OCC2=C(C(=O)O)N3C(=O)C(NC(=O)/C(=N\OC4(C(=O)O)CCC4)c4csc(N)n4)C3[S+]([O-])C2)ccc1CN (stereo not shown) [42 463] | ≤ 0.125 mg/L | ≤ 0.125 mg/L | ≤ 0.125 mg/L | 0.5 mg/L (≈ 0.757 µM) | ≤ 0.125 mg/L | ≤ 0.125 mg/L | 4 mg/L (≈ 6.05 µM) |
| CC(C)(CN)C(=O)OCC1=C(C(=O)O)N2C(=O)C(NC(=O)/C(=N\OC3(C(=O)O)CCC3)c3csc(N)n3)C2[S+]([O-])C1 (stereo not shown) [42 208] | 0.5 mg/L (≈ 0.816 µM) | 0.5 mg/L (≈ 0.816 µM) | ≤ 0.12 mg/L | 1 mg/L (≈ 1.63 µM) | 0.5 mg/L (≈ 0.816 µM) | 0.25 mg/L (≈ 0.408 µM) | 4 mg/L (≈ 6.53 µM) |
| CC(O/N=C(\C(=O)NC1C(=O)N2C(C(=O)O)=C(COC(=O)[C@H]3CC[C@H](CN)CC3)C[S+]([O-])C12)c1csc(N)n1)C(=O)O (stereo partly shown) [42 217] | ≤ 0.12 mg/L | ≤ 0.12 mg/L | ≤ 0.12 mg/L | 0.25 mg/L (≈ 0.399 µM) | ≤ 0.12 mg/L | ≤ 0.12 mg/L | 16 mg/L (≈ 25.5 µM) |
| CC(C)(ON=C(C(=O)NC1C(=O)N2C(C(=O)O)=C(COC(=O)C3CCCCC3CN)C[S+]([O-])C12)c1csc(N)n1)C(=O)O (stereo not shown) [42 321] | 0.5 mg/L (≈ 0.78 µM) | 0.5 mg/L (≈ 0.78 µM) | ≤ 0.125 mg/L | 1 mg/L (≈ 1.56 µM) | 0.5 mg/L (≈ 0.78 µM) | 0.25 mg/L (≈ 0.39 µM) | 8 mg/L (≈ 12.5 µM) |
| CC(C)(N)C(=O)OCC1=C(C(=O)O)N2C(=O)C(NC(=O)/C(=N\OC(C)(C)C(=O)O)c3csc(N)n3)C2[S+]([O-])C1 (stereo not shown) [41 858] | 2 mg/L (≈ 3.41 µM) | 1 mg/L (≈ 1.7 µM) | 0.5 mg/L (≈ 0.852 µM) | 4 mg/L (≈ 6.82 µM) | 0.5 mg/L (≈ 0.852 µM) | 8 mg/L (≈ 13.6 µM) | 8 mg/L (≈ 13.6 µM) |
| Cc1cc(C)c(C(=O)OCC2=C(C(=O)O)N3C(=O)C(NC(=O)C(=NOC4(C(=O)O)CCC4)c4csc(N)n4)C3[S+]([O-])C2)c(C)c1CN (stereo not shown) [42 542] | 0.5 mg/L (≈ 0.726 µM) | 0.5 mg/L (≈ 0.726 µM) | ≤ 0.125 mg/L | 0.5 mg/L (≈ 0.726 µM) | ≤ 0.25 mg/L | 0.5 mg/L (≈ 0.726 µM) | 8 mg/L (≈ 11.6 µM) |
| NC[C@H]1CC[C@H](C(=O)OCC2=C(C(=O)O)N3C(=O)C(NC(=O)/C(=N\OC4(C(=O)O)CCC4)c4csc(N)n4)C3[S+]([O-])C2)CC1 (stereo partly shown) [42 212] | ≤ 0.12 mg/L | ≤ 0.12 mg/L | ≤ 0.12 mg/L | 0.25 mg/L (≈ 0.383 µM) | ≤ 0.12 mg/L | ≤ 0.12 mg/L | 4 mg/L (≈ 6.13 µM) |
| NC[C@H]1CC[C@H](C(=O)OCC2=C(C(=O)O)N3C(=O)C(NC(=O)/C(=N\OCC(=O)O)c4csc(N)n4)C3[S+]([O-])C2)CC1 (stereo partly shown) [42 211] | ≤ 0.12 mg/L | ≤ 0.12 mg/L | ≤ 0.12 mg/L | ≤ 0.12 mg/L | ≤ 0.12 mg/L | ≤ 0.12 mg/L | 64 mg/L (≈ 104 µM) |
| CC(O)C(N)C(=O)OCC1=C(C(=O)O)N2C(=O)C(NC(=O)C(=NOC(C)(C)C(=O)O)c3csc(N)n3)C2[S+]([O-])C1 (stereo not shown) [41 885] | 1 mg/L (≈ 1.66 µM) | 4 mg/L (≈ 6.64 µM) | 0.5 mg/L (≈ 0.83 µM) | 4 mg/L (≈ 6.64 µM) | 0.5 mg/L (≈ 0.83 µM) | 8 mg/L (≈ 13.3 µM) | 8 mg/L (≈ 13.3 µM) |
| CCC(C)C(N)C(=O)OCC1=C(C(=O)O)N2C(=O)C(NC(=O)C(=NOC(C)(C)C(=O)O)c3csc(N)n3)C2[S+]([O-])C1 (stereo not shown) [41 860] | 2 mg/L (≈ 3.25 µM) | 1 mg/L (≈ 1.63 µM) | 0.5 mg/L (≈ 0.813 µM) | 4 mg/L (≈ 6.51 µM) | 0.5 mg/L (≈ 0.813 µM) | 8 mg/L (≈ 13 µM) | 16 mg/L (≈ 26 µM) |
| CC(C)(O/N=C(\C(=O)NC1C(=O)N2C(C(=O)O)=C(COC(=O)CC3CCCNC3)C[S+]([O-])C12)c1csc(N)n1)C(=O)O (stereo not shown) [42 372] | 0.25 mg/L (≈ 0.399 µM) | ≤ 0.125 mg/L | ≤ 0.125 mg/L | 0.25 mg/L (≈ 0.399 µM) | 0.25 mg/L (≈ 0.399 µM) | ≤ 0.125 mg/L | 4 mg/L (≈ 6.38 µM) |
| Nc1nc(/C(=N/OC2(C(=O)O)CCC2)C(=O)NC2C(=O)N3C(C(=O)O)=C(COC(=O)CC4CCNCC4)C[S+]([O-])C23)cs1 (stereo not shown) [42 473] | 0.25 mg/L (≈ 0.391 µM) | ≤ 0.125 mg/L | ≤ 0.125 mg/L | 0.25 mg/L (≈ 0.391 µM) | ≤ 0.125 mg/L | ≤ 0.125 mg/L | 4 mg/L (≈ 6.26 µM) |
| Cc1c(CN)cccc1C(=O)OCC1=C(C(=O)O)N2C(=O)C(NC(=O)C(=NOC3(C(=O)O)CCC3)c3csc(N)n3)C2[S+]([O-])C1 (stereo not shown) [42 540] | 0.25 mg/L (≈ 0.378 µM) | 0.125 mg/L (≈ 0.189 µM) | ≤ 0.125 mg/L | 0.25 mg/L (≈ 0.378 µM) | ≤ 0.125 mg/L | ≤ 0.125 mg/L | 4 mg/L (≈ 6.05 µM) |
| CC(C)(O/N=C(\C(=O)NC1C(=O)N2C(C(=O)O)=C(COC(=O)CCCCCCCN)C[S+]([O-])C12)c1csc(N)n1)C(=O)O (stereo not shown) [41 856] | 0.5 mg/L (≈ 0.778 µM) | 2 mg/L (≈ 3.11 µM) | ≤ 0.12 mg/L | 2 mg/L (≈ 3.11 µM) | 0.25 mg/L (≈ 0.389 µM) | 4 mg/L (≈ 6.22 µM) | 16 mg/L (≈ 24.9 µM) |

From patent publication US4656166A, “Antibiotic compounds derived from cephalosporins, process for their production and pharmaceutical compositions” (Sanofi, priority 1983, dated 1987)
